Laboratory results published in ChEMBL document CHEMBL1201862, “PubChem BioAssay data set” (2004).
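Each compound was tested at five concentrations against cells in 96-well plates for 48 hours. GI50 is the concentration that inhibits growth by half.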 The source made the active and inactive calls. Cut-off read from the data, not from the text of the source: active = GI50 up to about 1.1 µM and inactive = higher.

How the values were obtained:
Test in all cases: growth of human tumour cells (NCI), 48 h
NCI/ADR-RES = system: NCI/ADR-RES
MCF7 = system: MCF7
DU-145 = system: DU-145
OVCAR-4 = system: OVCAR-4
OVCAR-5 = system: OVCAR-5
RPMI-8226 = system: RPMI-8226
SK-MEL-28 = system: SK-MEL-28
KM12 = system: KM12
MOLT-4 = system: MOLT-4
NCI-H522 = system: NCI-H522
RXF 393 = system: RXF 393
786-0 = system: 786-0
BT-549 = system: BT-549
MDA-MB-231 = system: MDA-MB-231
SW-620 = system: SW-620
HL-60 = system: HL-60

Measured: GI50

COC(=O)c1sc2c(=O)c(C(=O)OC)c(C(=O)OC)sc2c(=O)c1C(=O)OC
inactive: NCI/ADR-RES > 100 µM | MCF7 > 100 µM | DU-145 > 100 µM | OVCAR-4 > 100 µM | OVCAR-5 > 100 µM | RPMI-8226 > 100 µM | SK-MEL-28 > 100 µM | KM12 > 100 µM | MOLT-4 5.85 µM | NCI-H522 21.5 µM | RXF 393 > 100 µM | 786-0 > 100 µM | BT-549 > 100 µM | MDA-MB-231 > 100 µM | SW-620 > 100 µM

O=C1NNC(=O)c2ccccc2SSc2ccccc2C(=O)NNC(=O)c2ccccc2SSc2ccccc21
inactive: NCI/ADR-RES 17.8 µM | MCF7 6.05 µM | DU-145 21.4 µM | OVCAR-4 33.7 µM | OVCAR-5 16.9 µM | RPMI-8226 34 µM | SK-MEL-28 45.5 µM | KM12 22.5 µM | MOLT-4 2.94 µM | HL-60 6.7 µM | NCI-H522 35.5 µM | RXF 393 > 50 µM | 786-0 13.5 µM | BT-549 11.5 µM | MDA-MB-231 32.4 µM | SW-620 8.59 µM

CCOC(=O)c1sc2ncnc(N)c2c1C
inactive: NCI/ADR-RES > 100 µM | MCF7 51.6 µM | DU-145 68.7 µM | OVCAR-4 20.4 µM | OVCAR-5 36.3 µM | RPMI-8226 95.5 µM | SK-MEL-28 45.3 µM | KM12 47.1 µM | MOLT-4 65.2 µM | HL-60 > 100 µM | NCI-H522 59.3 µM | RXF 393 22.8 µM | 786-0 53.8 µM | BT-549 > 100 µM | MDA-MB-231 > 100 µM | SW-620 > 100 µM

O=C(Cn1ccnc1[N+](=O)[O-])NCCO [ETANIDAZOLE]
inactive: NCI/ADR-RES > 100 µM | MCF7 > 100 µM | DU-145 > 100 µM | OVCAR-4 > 100 µM | OVCAR-5 > 100 µM | RPMI-8226 > 100 µM | SK-MEL-28 > 100 µM | KM12 > 100 µM | HL-60 > 100 µM | NCI-H522 > 100 µM | RXF 393 > 100 µM | 786-0 > 100 µM | BT-549 > 100 µM | MDA-MB-231 > 100 µM | SW-620 > 100 µM

CNc1ncc(-c2nnnn2-c2ccccc2)c(CN(C)C)n1
inactive: NCI/ADR-RES > 100 µM | MCF7 > 100 µM | DU-145 > 100 µM | OVCAR-5 > 100 µM | RPMI-8226 > 100 µM | SK-MEL-28 > 100 µM | KM12 > 100 µM | MOLT-4 > 100 µM | HL-60 > 100 µM | NCI-H522 > 100 µM | RXF 393 > 100 µM | 786-0 > 100 µM | BT-549 > 100 µM | MDA-MB-231 > 100 µM | SW-620 > 100 µM

COc1cc2c(cc1OCCCCCOc1cc3c(cc1OC)C(=O)N1CCC[C@H]1CN3)N=C[C@@H]1CCCN1C2=O
inactive: NCI/ADR-RES 23.4 µM | MCF7 15.8 µM | DU-145 11.1 µM | OVCAR-4 25.6 µM | OVCAR-5 16.9 µM | SK-MEL-28 11.2 µM | KM12 2.92 µM | MOLT-4 2.4 µM | HL-60 4.3 µM | NCI-H522 1.36 µM | RXF 393 17 µM | 786-0 3.94 µM | BT-549 2.66 µM | MDA-MB-231 2.49 µM | SW-620 4.25 µM

COC1C(O)C(O[C@H]2CC[C@@]3(C)C(CC[C@@H]4[C@@H]3CC[C@]3(C)[C@@H](C(C)OC5OC(CO)C(O)C(O)C5O)CC[C@]43O)C2)OC(C)C1OC1OC(CO)C(O)C(O)C1O (stereo partly drawn)
inactive: NCI/ADR-RES > 100 µM | MCF7 > 100 µM | DU-145 > 100 µM | OVCAR-4 > 100 µM | OVCAR-5 > 100 µM | RPMI-8226 > 100 µM | SK-MEL-28 > 100 µM | KM12 > 100 µM | MOLT-4 > 100 µM | NCI-H522 > 100 µM | RXF 393 > 100 µM | 786-0 > 100 µM | BT-549 > 100 µM | MDA-MB-231 > 100 µM | SW-620 > 100 µM

Cc1cc(C)nc(SC(C)C(=O)N/N=C/c2ccc(OCc3ccccc3)cc2)n1 (stereo not drawn)
inactive: NCI/ADR-RES 21.8 µM | MCF7 21 µM | DU-145 37.7 µM | OVCAR-4 15.7 µM | OVCAR-5 78.9 µM | RPMI-8226 13.3 µM | SK-MEL-28 53.2 µM | KM12 > 100 µM | MOLT-4 17.1 µM | HL-60 14.5 µM | NCI-H522 15.3 µM | RXF 393 19.1 µM | 786-0 36.6 µM | BT-549 26.5 µM | MDA-MB-231 19.7 µM | SW-620 39.5 µM
